Results published in patent US20250339817A1, “A PROCESS FOR THE NITRIC OXIDE ABATEMENT THROUGH BIOLOGICAL TREATMENTS” (FUNDACIÓ EURECAT, priority 2022, published 2025).

Tests used:
Format in all cases: physicochemical
[1] = Nitric oxide (NO) absorption with pure NAPs (batch tests); details: pure NAP, first screening test, 1 hour, 25° C., initial NO 4500-5100 ppmv
Procedure: Batch tests with pure NAPs were performed in 120 mL glass amber vials with an initial concentration of NO between 4500 and 5100 ppmv and different amounts of NAPs (DES, SO, HTX, HNO and HEX). For this experiment each NAP was added to a vial containing NO. Each NAP was tested alone. The results were compared with respect to a blank containing deionized water instead of NAP. All experiments were carried out at a temperature of 25° C. and agitation of 100 rpm in an incubator, five replicates were made per point. Gas phase analysis (NO and NO2) was performed at the beginning of the experiment and at the end (1 hour).
NO and NO2 concentrations in the gas phase were measured by Fourier Transform Infrared Spectroscopy (FTIR) from an aliquot of 1 mL (PerkinElmer Inc., Spain). The NO removal efficiency in the tests was calculated from the difference in NO concentration from the beginning and end of each test. Nitrogen compounds and chemical oxygen demand (COD) were analyzed in liquid samples after centrifuged at 15,000 rpm and filtration (0.22 μm) to separate the NAP found in the sample. Nitrite and nitrate were measured using Hach Lange kits (LCK342 and LCK 339, respectively, Hach Lange, Germany). COD was measured using Hach Lange kits (LCK114 and LCK 214, respectively, Hach Lange, Germany).

[2] = Mass transfer gas-to-liquid tests in a two-phase system (CO2/NAP); details: pure CO2 (without gas mixture), 1 h
Procedure: Mass transfer gas-to-liquid batch tests were performed to determine the mass transfer rate of CO2 in the presence of NAP. The initial samples were filled with CO2 to reach a peak transmittance area between 6200 and 7100 cm-1, then 10 mL of each NAP (HTX, HNO and HEX) was injected. […] CO2 in the gas phase were measured at the beginning and at the end of the test. All experiments were performed in 500 mL amber glass bottles previously prepared in a glove box to maintain an inert atmosphere and carried out per at least triplicate at a temperature of 25° C. and 100 rpm orbital shaking in an incubator.
(§1) NO and CO2 peak area in the gas phase were measured by Fourier Transform Infrared Spectroscopy (FTIR). In these experiments the peak area was analyzed and not the concentration. Therefore, the performance of the tests will be given in percent (%) area reduction, which is defined in Eq 1. Nitrogen compounds were analyzed in liquid samples after being centrifuged at 15,000 rpm and filtration (0.22 μm) to separate the NAP found in the sample. NO2^− and NO3^− were measured using Hach Lange kits (LCK342 and LCK 339, respectively, Hach Lange, Germany).
(§2) The initial area (Areainitial) is a quantitative measure of the transmittance at certain given wavelengths (NO=1730-1930 cm^−1; CO2=2230-2400 cm^−1) and correlates the presence of the compound in the sample at time=0 h. The final area (Areafinal) is a quantitative measure of the transmittance at the given wavelengths (NO=between 1730-1930 cm^−1; CO2=2230-2400 cm-1) and correlates with the presence of the compound in the sample at time=1 h.

[3] = Mass transfer gas-to-liquid batch tests in a two-phase system with a mixture of gases (CO2/NO/NAP), CO2; details: 1 h
Procedure: (§3) Mass transfer gas-to-liquid batch tests with a mixture of gases with CO2 and NO were performed to determine the mass transfer rate and selectivity of these gases in the presence of NAP. The initial samples were filled with CO2 to reach a peak transmittance area between 6388 and 8018 cm^−1 and NO to reach a peak of transmittance area between 73 and 84 cm^−1, then 10 mL of each NAP (HTX, HNO and HEX) was injected. CO2 and NO in the gas phase were measured at the beginning and at the end of the test. All experiments were carried out per at least triplicate at a temperature of 25° C. and 100 rpm orbital shaking in an incubator. These tests had also a blank in which the NAP phase was replaced by phosphate buffer (pH=8).
as §1, §2

[4] = Mass transfer gas-to-liquid batch tests in a two-phase system with a mixture of gases (CO2/NO/NAP), NO; details: 1 h
Procedure: as §3, §1, §2

[5] = Mass transfer gas-to-liquid batch tests in a three-phase system (CO2/NO/Aqueous/NAP), NO; parameters: concentration or dose not given beside the values; details: phosphate buffer
Procedure: (§4) Mass transfer gas-to-liquid batch tests with a mixture of gases with CO2 and NO were performed to determine the mass transfer rate and selectivity of these gases in the presence of NAP and aqueous phase. The results were compared with respect to blank (water or phosphate buffer at pH 8 without NAP). The initial samples were filled with CO2 to reach a peak transmittance area between 8010 and 8940 cm^−1 and NO to reach a peak of transmittance area between 11 and 14 cm^−1, then 10 mL of each NAP (HTX, HNO and HEX) was injected. Tests were performed with a phosphate buffer at pH 8 at a 10% v/v ratio of NAP/aqueous phase. All experiments were performed in 500 mL amber glass bottles previously prepared in a glove box to maintain an inert atmosphere and carried out per at least triplicate at a temperature of 25° C. and 100 rpm orbital shaking in an incubator. CO2 and NO in the gas phase were measured at the beginning and at the end of the test. Also, the liquid phase was monitored for pH, nitrite (NO2^−) and nitrate (NO3^−) at the end of each test.
as §1, §2

[6] = Mass transfer gas-to-liquid batch tests in a three-phase system (CO2/NO/Aqueous/NAP), CO2; details: gas mixture, phosphate buffer
Procedure: as §4, §1, §2

SMILES	RE NO (NO removal efficiency) [1] [%]	CO2 peak area reduction [2] [%]	CO2 peak area reduction [3] [%]	NO percent of area reduction [4] [%]	NO percent of area reduction ([5]; with CO2) [%]	NO percent of area reduction ([5]; without CO2) [%]	CO2 peak area difference [6] [%]
CCCCCCCCCCCCCCCC [HEX, n-hexadecane]	29.2	11±3	15±2	31±6	28±3	26±5	8±2
CC(CC(C)(C)C)CC(C)(C)CC(C)(C)C (centres unmarked) [HNO, 2,2,4,4,6,8,8-heptamethylnonane]	–	18±3	13±0.3	21±4	54±4	32±4	3±7
C[SiH](O[Si](C)(C)C)O[Si](C)(C)C [HTX, 1,1,1,3,5,5,5-heptamethyl-trisiloxane]	49.2	99±0.2	97±0.9	62±5	56±7	70±3	7±2
